# In patent publication US20190133980A1, “Compositions and methods for targeting and treating homologous recombination-deficient tumors” (YALE UNIVERSITY, priority 2016, published 2019):
# Key:
# [1] = test system: wild-type and IDH1-R132H heterozygous HCT116 cells; test: Short-term growth delay assay, HCT116; format: cell-based, Human
# Method: (§1) Cells were plated in 96-well black-walled plates (Costar) at a concentration of 2.5 k/well and allowed to adhere at room temperature for 60 minutes prior to return to the incubator. For growth delay assays containing octyl-(R)-2HG, cells were cultured with indicated concentration for 10 days prior to plating. 24 hours later, the media was changed and indicated drugs dissolved in either DMSO or DMF (cisplatin only) were added in quadruplicate at varying concentrations. For synergy experiments, cells were replica-plated and drugs added in single wells at the indicated concentrations. At 96 hours after the addition of drugs, cells were washed in PBS, fixed in 70% ethanol, and stained with Hochst at 1 μg/mL. The plates were then imaged on a Cytation 3 automated imager (BioTek), and cells were counted using CellProfiler (cellprofiler.org/). Each experiment was performed three times and values from a representative experiment are reported as mean±SEM. For synergy experiments, experiments were analyzed for synergistic interactions using Combenefit (www.cruk.cam.ac.uk/research-groups/jodrell-group/combenefit).
# [2] = test system: homologous recombination (HR) in U2OS DR-GFP cells; test: U2OS DR-GFP chromosomal HR reporter assay; format: cell-based; conditions: for suppression of HR: after 10 days of culture in 300 μM octyl-(R)-2-hydroxyglutarate vs DMSO
# Method: These reporter assays are carried out as previously described ([…] et al., Molecular cancer research: MCR 13, 1389-1397 (2015)). Briefly, after 10 days of culture in (2R)-Octyl-alpha-hydroxyglutarate (Cayman), 1×10^6 cells were transfected in triplicate with 4 μg pI-SceI using the Amaxa Nucleofector II and Nucleofection Kit V (Lonza) per manufacturer's protocol. 72 h after transfection, cells were analyzed for GFP expression using flow cytometry, and the data was analyzed using FlowJo software to calculate %GFP positive cells. Values reported are mean±SEM.
# [3] = test system: wild-type or IDH1-R132H heterozygous astrocytes; test: Long-term colony forming (clonogenic survival) assay, astrocytes; format: cell-based, Human; conditions: FIG. 2B
# Method: (§2) Cells were counted and diluted in media containing various concentration of drug. They were then immediately seeded in 6-well plates in triplicate at 3-fold dilutions, ranging from 9000 to 37 cells per well. These plates were kept in the incubator for 10 to 14 days, following which they were washed in PBS, stained with Crystal Violet, and quantified. Each experiment was performed twice, and values reported are mean ±standard deviation.
# [4] = test system: wild-type or IDH1-R132H heterozygous astrocytes; test: Short-term growth delay assay, astrocytes; format: cell-based, Human; conditions: for sensitization of IDH1-mutant versus WT cells to single DNA damaging agent: FIG. 6A, single agents
# Method: as §1, with “For growth delay assays containing octyl-(R)-2HG, cells were cultured with indicated concentration for 10 days prior to plating. 24 hours later, the media was changed and indicated drugs dissolved in either DMSO or DMF (cisplatin only) were added in quadruplicate at varying concentrations.” left out
# [5] = test system: wild-type or IDH1-R132H heterozygous HCT116 cells; test: Long-term colony forming assay, HCT116; format: cell-based, Human; conditions: FIG. 5E; at 10 nM BMN-673
# Method: as §2
# [6] = test system: HCT116 IDH1-WT and -mutant tumors; test: In vivo BMN 673 efficacy study, subcutaneous flank xenografts; set-up: species or system nude mice; conditions: BMN-673 0.33 mg/kg oral gavage once daily for 21 days vs vehicle
# Method: All animal experiments were performed in compliance with our institution's IACUC committee. Four week-old female athymic nu/nu mice were used for all in vivo xenograft studies. Mice were quarantined for at least 1 week before experimental manipulation. Human HCT116 cells (with and without IDH1 mutation) were implanted subcutaneously (3-5×10^6 cells in 0.1 cc PBS) in the right flank of nude mice. When tumors reached an average volume of approximately 100 mm^3, mice were randomized into various treatment groups (5-7 mice/group) in each study. Animals were not randomized, but were grouped based on tumor size such that tumors were roughly equivalent in size when treatment was begun. The investigator was not blinded throughout the experiment. Mice were visually observed daily and tumors were measured three times per week by calipers to determine tumor volume using the formula: […]
# BMN 673 was solubilized in DMSO and diluted with PBS containing 10% dimethylacetamide (Sigma-Aldrich) and 6% Solutol (Sigma-Aldrich). […] Tumor tripling time was calculated as the time required for tumors to increase in volume threefold over baseline at the time of treatment initiation. P-values were determined by Mann-Whitney U test (Stata). Kaplan-Meier curves were generated with survival fraction determined by the number of mice alive with tumor volume smaller than three times the initial pre-treatment volume. […]
# [7] = test system: IDH1-WT U2OS DR-GFP cells; test: Neutral comet assay, U2OS; format: cell-based; conditions: 24 h exposure to DMOG
# Method: (§3) Neutral comet assays were performed per manufacturer's protocol (Trevigen). Briefly, cells were trypsinized, washed with PBS and suspended in LM Agarose (Trevigen). Neutral electrophosesis was conducted at 21V for 1 hour in the CometAssay Electrophoresis System (Trevigen). Data were collected with an EVOS FL microscope (Advanced Microscopy Group) and analyzed using AutoComet software (TriTek Corporation). For each experiment, three biological replicates each with >50 cells were measured, and reported values are mean±SEM.
# [8] = test system: WT and R132H/+ HCT116 cells; test: Neutral comet assay, HCT116; format: cell-based, Human
# Method: as §3
compound,measurement,setting,value
"O=C(O)CCC(O)C(=O)O (stereo not drawn) [2-HG, 2-hydroxyglutarate]",PARP inhibitor (BMN-673) sensitivity of WT cells after 2-HG treatment,"[1]; FIGS. 2C-2D, wild-type HCT116, octyl-(R)-2HG with 300 nM BMN-673, or 900 μM octyl-(R)-2HG with BMN-673 dose response",recapitulate the enhanced PARP inhibitor sensitivity seen in IDH1-mutant cells
same,ability of treatment alone to reproduce the IDH1-associated HR defect,"[2]; FIG. 1I, FIGS. 3H-3I, wild-type cells",recapitulate the IDH1-associated HR defect
same,suppression of HR,[2]; FIG. 1I,"dramatic, and it approached levels seen with siRNAs targeting two key HR genes, RAD51 and BRCA2"
Cn1ncnc1[C@H]1c2n[nH]c(=O)c3cc(F)cc(c23)N[C@@H]1c1ccc(F)cc1 [BMN-673],increase in sensitivity of IDH1-R132H versus wild-type astrocytes,[3]; at 10 nM BMN-673,ten-fold increase in sensitivity
same,decrease in cell survival of IDH1-mutant compared to WT cells,"[3]; clonogenic survival, dose of 10 nM",10 fold
same,difference in IC50 between wild-type and IDH1-R132H heterozygous HCT116,[1]; FIG. 5D,nearly eight-fold difference in IC50
same,decrease in IC50 in R132H mutants versus wild-type,"[4]; FIG. 2A, BMN-673 dose response, 96 hours after addition of drug",four-fold decrease in IC50
same,difference in cell viability between wild-type and IDH1-R132H heterozygous HCT116,[5],roughly ten-fold difference in cell viability
same,tumor growth in IDH1-WT tumors,[6]; HCT116 IDH1-WT xenografts,minimal effects
same,tumor growth in IDH1-mutant tumors,[6]; HCT116 IDH1-mutant xenografts,significant growth delay
"COC(=O)CNC(=O)C(=O)OC [DMOG, dimethyloxalylglycine]",HR activity,[2]; 24 h pretreatment with DMOG,dose dependent HR suppression
same,baseline DSBs,[7],dose dependent increase in baseline DSBs
"COS(C)(=O)=O [MMS, Methyl methanesulfonate]",sensitization of IDH1-mutant versus WT cells to single DNA damaging agent,[4],"modest, but detectable sensitization"
O=[N+]([O-])c1cc([N+](=O)[O-])c(/C=C/c2ccc(Cl)c(Cl)c2)cc1/C=C/c1ccc(Cl)c(Cl)c1 [NSC-636819],doses at which the increase in DSBs was observed,[8]; HCT116 IDH-WT cells,12.5 to 50 µM
same,DSBs (comet tail moment) in HCT116 IDH-WT cells,"[8]; NSC-636819 treatment, HCT116 IDH-WT","dose-dependent increase in elevated DSBs, which approached the levels seen in untreated HCT116 IDH-mutant cells"
same,comet tail moments in HCT116 IDH-mutant cells,"[8]; NSC-636819 treatment, HCT116 IDH-mutant",did not further increase comet tail moments
N.N.[Cl][Pt][Cl] [cisplatin],synergy between BMN-673 and cisplatin,"[4]; FIG. 2F, 8 nM BMN-673 and 1 cisplatin, IDH1 wild-type vs IDH1-R132H astrocytes",IDH1-R132H-dependent synergy
same,sensitization of IDH1-mutant versus WT cells to single DNA damaging agent,[4],"modest, but detectable sensitization"
same,synergistic interaction with BMN-673 in IDH1-mutant tumor cells,"[4]; FIGS. 2E-F, 6B (cisplatin, astrocytes), FIG. 6C (TMZ, IDH1-R132H HCT116), Combenefit analysis",dramatic synergistic interaction
CCc1c2c(nc3ccc(OC(=O)N4CCC(N5CCCCC5)CC4)cc13)-c1cc3c(c(=O)n1C2)COC(=O)[C@]3(O)CC [irinotecan],sensitization of IDH1-mutant versus WT cells to single DNA damaging agent,[4],"modest, but detectable sensitization"
(2R)-octyl-α-hydroxyglutarate [octyl-(R)-2-hydroxyglutarate],suppression of HR,[2]; FIG. 1I,comparable in magnitude to RAD51 or BRCA2 suppression by siRNA knockdown
